Reference: ChEMBL document CHEMBL1909046, “DrugMatrix in vitro pharmacology data”
*1 amine or outer side, *2 acyl side, *3 side chain or, on linkers, in order; H or OH if unused. Where a SMILES comes first, the peptide text is derived from it. Bridges are numbered along the chain shown (N, C = ends). Roman numbers before positions name the chains, in order. [ ]: non-standard residue; d: D form. Actinocin(1to9) = Cc1c2oc3c(C)ccc(C(=O)[*:2])c3nc-2c(C(=O)[*:1])c(N)c1=O; NMeV = CN[C@H](C(=O)O)C(C)C; Sar = CNCC(=O)O

Columns and labels:
Thromboxane-A synthase = biological target: T1, Thromboxane-A synthase (Homo sapiens, UniProt P24557); assay: biochemical; format: tissue-based, Platelet;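 note: enzyme inhibition assay with PGH2 supplied as substrate; in other assays of this panel Not Active means under 50% inhibition at 10 µM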
T1 sequence (P24557 whole entry): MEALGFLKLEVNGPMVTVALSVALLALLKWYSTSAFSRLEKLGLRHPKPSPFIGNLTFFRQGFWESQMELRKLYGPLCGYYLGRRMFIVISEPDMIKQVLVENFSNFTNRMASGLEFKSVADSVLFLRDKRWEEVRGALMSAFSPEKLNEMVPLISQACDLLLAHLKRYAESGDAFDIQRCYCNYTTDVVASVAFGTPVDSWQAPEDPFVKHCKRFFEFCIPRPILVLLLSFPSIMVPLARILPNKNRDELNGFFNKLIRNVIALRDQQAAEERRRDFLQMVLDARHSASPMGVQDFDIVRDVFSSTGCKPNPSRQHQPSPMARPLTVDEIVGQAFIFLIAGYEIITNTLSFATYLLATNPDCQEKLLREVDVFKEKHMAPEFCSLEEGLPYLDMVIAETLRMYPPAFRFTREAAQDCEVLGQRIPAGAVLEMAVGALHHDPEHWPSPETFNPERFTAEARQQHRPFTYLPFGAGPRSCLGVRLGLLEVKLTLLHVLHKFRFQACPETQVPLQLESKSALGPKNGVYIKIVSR

[1] = DRUGMATRIX: Glutamate, AMPA radioligand binding (ligand: [3H] AMPA); format: cell membranes, Rattus norvegicus, Wistar, Cerebral cortex, Membrane; settings: Not Active = under 50% inhibition at 10 µM
[2] = biological target: T2, Neuropeptide Y receptor type 1 (Homo sapiens, UniProt P25929); format: cell membranes, Membrane; settings: sk-n-mc; note: in other assays of this panel Not Active means under 50% inhibition at 10 µM
T2 sequence (P25929 whole entry): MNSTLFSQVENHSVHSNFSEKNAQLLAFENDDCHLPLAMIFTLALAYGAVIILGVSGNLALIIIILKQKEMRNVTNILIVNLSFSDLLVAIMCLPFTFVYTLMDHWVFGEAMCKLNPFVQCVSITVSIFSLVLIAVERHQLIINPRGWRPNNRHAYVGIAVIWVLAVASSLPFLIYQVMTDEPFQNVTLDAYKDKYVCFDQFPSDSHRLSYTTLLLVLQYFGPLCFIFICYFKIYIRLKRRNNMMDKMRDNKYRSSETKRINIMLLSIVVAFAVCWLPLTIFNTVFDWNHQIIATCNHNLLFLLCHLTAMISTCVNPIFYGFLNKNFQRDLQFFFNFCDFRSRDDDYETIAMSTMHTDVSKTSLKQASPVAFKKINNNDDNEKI

[3] = biological target: T3, Angiotensin-converting enzyme (Oryctolagus cuniculus, UniProt P12822); format: tissue-based, Lung;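 note: enzymatic inhibition of angiotensin-converting enzyme measured with FAPGG as the substrate; in other assays of this panel Not Active means under 50% inhibition at 10 µM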
T3 sequence (P12822 whole entry): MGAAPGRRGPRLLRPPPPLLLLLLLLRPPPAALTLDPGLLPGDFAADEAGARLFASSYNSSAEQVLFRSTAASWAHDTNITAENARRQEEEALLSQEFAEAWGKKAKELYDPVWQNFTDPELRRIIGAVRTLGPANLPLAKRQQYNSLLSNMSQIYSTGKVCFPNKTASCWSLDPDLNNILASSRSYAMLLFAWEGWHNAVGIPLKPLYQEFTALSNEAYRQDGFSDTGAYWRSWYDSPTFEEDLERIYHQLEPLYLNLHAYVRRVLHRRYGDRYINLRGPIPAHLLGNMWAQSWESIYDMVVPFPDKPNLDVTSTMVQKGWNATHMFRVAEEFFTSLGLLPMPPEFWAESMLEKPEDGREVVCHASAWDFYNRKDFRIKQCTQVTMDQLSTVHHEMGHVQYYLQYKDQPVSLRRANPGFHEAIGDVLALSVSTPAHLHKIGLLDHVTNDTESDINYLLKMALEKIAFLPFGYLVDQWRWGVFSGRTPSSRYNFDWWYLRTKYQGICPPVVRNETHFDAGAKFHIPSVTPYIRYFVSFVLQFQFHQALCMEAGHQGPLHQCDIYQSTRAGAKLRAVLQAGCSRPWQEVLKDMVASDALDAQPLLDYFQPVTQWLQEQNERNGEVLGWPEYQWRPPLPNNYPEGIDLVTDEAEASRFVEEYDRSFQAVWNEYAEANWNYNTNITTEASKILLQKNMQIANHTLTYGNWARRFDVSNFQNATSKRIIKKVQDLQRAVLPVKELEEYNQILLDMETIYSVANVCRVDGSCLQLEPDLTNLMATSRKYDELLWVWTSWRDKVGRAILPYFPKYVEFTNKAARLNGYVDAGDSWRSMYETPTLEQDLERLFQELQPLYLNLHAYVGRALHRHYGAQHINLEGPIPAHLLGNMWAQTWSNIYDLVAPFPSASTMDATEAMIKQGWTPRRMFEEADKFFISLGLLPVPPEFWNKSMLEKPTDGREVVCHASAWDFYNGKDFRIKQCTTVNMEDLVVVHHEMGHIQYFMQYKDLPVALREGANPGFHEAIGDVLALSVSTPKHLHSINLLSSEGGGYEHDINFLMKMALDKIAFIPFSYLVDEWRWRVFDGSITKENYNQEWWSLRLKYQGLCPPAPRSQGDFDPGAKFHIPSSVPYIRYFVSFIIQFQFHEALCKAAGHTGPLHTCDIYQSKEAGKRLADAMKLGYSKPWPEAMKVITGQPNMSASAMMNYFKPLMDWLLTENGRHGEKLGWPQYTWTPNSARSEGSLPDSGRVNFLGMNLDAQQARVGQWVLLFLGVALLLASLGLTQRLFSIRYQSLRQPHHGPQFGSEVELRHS

[4] = biological target: Matrix metalloproteinase-9 (Homo sapiens, UniProt P14780); assay: biochemical; format: cell-based;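 note: inhibition of isolated MMP-9 enzyme activity toward a synthetic peptide substrate, from the DrugMatrix protease screening panel; in other assays of this panel Not Active means under 50% inhibition at 10 µM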
Matrix metalloproteinase-9, sequence (P14780 whole entry): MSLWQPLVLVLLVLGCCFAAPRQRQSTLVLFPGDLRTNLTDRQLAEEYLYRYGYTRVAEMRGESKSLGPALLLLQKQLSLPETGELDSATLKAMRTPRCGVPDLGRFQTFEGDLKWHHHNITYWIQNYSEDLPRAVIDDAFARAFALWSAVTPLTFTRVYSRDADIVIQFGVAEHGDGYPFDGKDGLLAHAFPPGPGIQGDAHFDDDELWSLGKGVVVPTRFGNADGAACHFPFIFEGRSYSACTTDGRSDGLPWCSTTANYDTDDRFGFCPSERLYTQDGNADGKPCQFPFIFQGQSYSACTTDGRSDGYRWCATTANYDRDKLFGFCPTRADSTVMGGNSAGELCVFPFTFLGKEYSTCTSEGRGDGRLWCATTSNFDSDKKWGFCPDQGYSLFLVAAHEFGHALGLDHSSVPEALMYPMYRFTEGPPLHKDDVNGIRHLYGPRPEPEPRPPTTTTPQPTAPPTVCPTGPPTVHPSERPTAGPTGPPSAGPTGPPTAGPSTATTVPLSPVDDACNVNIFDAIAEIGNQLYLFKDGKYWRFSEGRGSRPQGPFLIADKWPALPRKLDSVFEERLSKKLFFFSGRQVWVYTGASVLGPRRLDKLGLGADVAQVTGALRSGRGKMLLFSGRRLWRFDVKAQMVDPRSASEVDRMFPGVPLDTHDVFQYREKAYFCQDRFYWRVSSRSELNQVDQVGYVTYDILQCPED

Cytochrome P450 2C19 = Cytochrome P450 2C19 (Homo sapiens, UniProt P33261); settings: bti-tn-5b1-4; note: in other assays of this panel Not Active means under 50% inhibition at 10 µM
Cytochrome P450 2C19, sequence (P33261 whole entry): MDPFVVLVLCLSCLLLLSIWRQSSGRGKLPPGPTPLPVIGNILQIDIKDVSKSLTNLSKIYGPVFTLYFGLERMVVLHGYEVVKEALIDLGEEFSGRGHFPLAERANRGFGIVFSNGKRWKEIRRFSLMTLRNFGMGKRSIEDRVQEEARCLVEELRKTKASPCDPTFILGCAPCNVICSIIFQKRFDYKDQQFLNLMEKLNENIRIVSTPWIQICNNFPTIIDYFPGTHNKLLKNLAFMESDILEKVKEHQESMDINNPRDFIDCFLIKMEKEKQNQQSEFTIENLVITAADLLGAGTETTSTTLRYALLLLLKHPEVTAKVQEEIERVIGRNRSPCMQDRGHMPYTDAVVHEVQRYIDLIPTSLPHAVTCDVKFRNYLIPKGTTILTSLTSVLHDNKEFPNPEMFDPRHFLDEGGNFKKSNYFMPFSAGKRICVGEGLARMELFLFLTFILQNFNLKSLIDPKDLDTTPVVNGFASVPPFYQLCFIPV

Cytochrome P450 2D6 = Cytochrome P450 2D6 (Homo sapiens, UniProt P10635); settings: bti-tn-5b1-4; note: in other assays of this panel Not Active means under 50% inhibition at 10 µM
Cytochrome P450 2D6, sequence (P10635 whole entry): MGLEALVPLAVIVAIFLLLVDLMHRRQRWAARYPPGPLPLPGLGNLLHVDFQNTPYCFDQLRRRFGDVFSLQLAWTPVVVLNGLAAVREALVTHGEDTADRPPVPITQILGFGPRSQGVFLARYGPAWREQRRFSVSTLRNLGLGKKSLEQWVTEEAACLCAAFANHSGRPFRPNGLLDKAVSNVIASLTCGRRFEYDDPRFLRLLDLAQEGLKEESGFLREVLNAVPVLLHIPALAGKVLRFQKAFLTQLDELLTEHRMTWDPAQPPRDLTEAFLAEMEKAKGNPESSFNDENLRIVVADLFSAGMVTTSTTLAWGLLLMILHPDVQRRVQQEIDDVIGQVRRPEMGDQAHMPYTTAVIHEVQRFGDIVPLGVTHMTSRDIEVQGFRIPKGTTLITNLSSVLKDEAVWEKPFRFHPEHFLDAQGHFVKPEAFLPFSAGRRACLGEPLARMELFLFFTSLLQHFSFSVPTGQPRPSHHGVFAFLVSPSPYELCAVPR

SMILES	IC50 (Thromboxane-A synthase; platelet)	IC50 [1]	Ki [1]	IC50 [2]	IC50 [3]	IC50 [4]	IC50 (Cytochrome P450 2C19)	Ki (Cytochrome P450 2C19)	IC50 (Cytochrome P450 2D6)	Ki (Cytochrome P450 2D6)	Ki (Thromboxane-A synthase; platelet)	Ki [2]	Ki [3]	Ki [4]	IC50 ([4]; read-out: IC50)	IC50 (Thromboxane-A synthase; read-out: IC50)
Cc1ccc(/N=C/N(C)/C=N/c2ccc(C)cc2C)c(C)c1 [AMITRAZ]	Not Active	Not Active	Not Active	Not Active	Not Active	Not Active	Not Active	Not Active	Not Active	Not Active	–	–	–	–	–	–
CCOC(=O)C1=C(COCCN)NC(C)=C(C(=O)OC)C1c1ccccc1Cl (centres undefined) [AMLODIPINE]	Not Active	Not Active	Not Active	Not Active	Not Active	Not Active	Not Active	Not Active	Not Active	Not Active	–	–	–	–	–	–
COc1ccc(C[C@H]2NC[C@H](O)[C@H]2OC(C)=O)cc1 [ANISOMYCIN]	Not Active	Not Active	Not Active	Not Active	Not Active	Not Active	Not Active	Not Active	Not Active	Not Active	Not Active	Not Active	Not Active	Not Active	–	–
c1ccc2c(c1)c1cccc3ccc4cccc2c4c31 [BENZO[E]PYRENE]	Not Active	Not Active	Not Active	Not Active	Not Active	Not Active	Not Active	Not Active	Not Active	Not Active	–	–	–	–	–	–
CNCCc1ccccn1 [BETAHISTINE]	Not Active	Not Active	Not Active	Not Active	Not Active	Not Active	Not Active	Not Active	Not Active	Not Active	–	–	–	–	–	–
CC(C)C(Br)C(=O)NC(N)=O (centres undefined) [BROMISOVALUM]	Not Active	Not Active	Not Active	Not Active	Not Active	Not Active	Not Active	Not Active	Not Active	Not Active	–	–	–	–	–	–
CCCC1O[C@@H]2C[C@H]3[C@@H]4CCC5=CC(=O)C=C[C@]5(C)[C@H]4[C@@H](O)C[C@]3(C)[C@]2(C(=O)CO)O1 (some centres undefined) [BUDESONIDE]	Not Active	Not Active	Not Active	Not Active	Not Active	–	Not Active	Not Active	Not Active	Not Active	–	–	–	–	1990 nM	–
O=C(O)CCCc1ccc(N(CCCl)CCCl)cc1 [CHLORAMBUCIL]	Not Active	Not Active	Not Active	Not Active	Not Active	Not Active	Not Active	Not Active	Not Active	Not Active	–	–	–	–	–	–
Cc1cc(C2CCCCC2)n(O)c(=O)c1 [CICLOPIROX]	Not Active	Not Active	Not Active	Not Active	Not Active	Not Active	Not Active	Not Active	Not Active	Not Active	–	–	–	–	–	–
CC1=C2C(=CO[C@H](C)[C@H]2C)C(O)=C(C(=O)O)C1=O [CITRININ]	Not Active	Not Active	Not Active	Not Active	Not Active	Not Active	Not Active	Not Active	Not Active	Not Active	–	–	–	–	–	–
CC(C)(C)NCC(O)c1cc(Cl)c(N)c(Cl)c1 (centres undefined) [CLENBUTEROL]	Not Active	Not Active	Not Active	Not Active	Not Active	Not Active	Not Active	Not Active	Not Active	Not Active	–	–	–	–	–	–
Clc1cccc(Cl)c1NC1=NCCN1 [CLONIDINE]	Not Active	Not Active	Not Active	Not Active	Not Active	Not Active	Not Active	Not Active	Not Active	Not Active	–	–	–	–	–	–
Cc1cc(C(C#N)c2ccc(Cl)cc2)c(Cl)cc1NC(=O)c1cc(I)cc(I)c1O (centres undefined) [CLOSANTEL]	–	Not Active	Not Active	Not Active	Not Active	Not Active	Not Active	Not Active	Not Active	Not Active	–	–	–	–	–	64 nM
Cc1onc(-c2ccccc2Cl)c1C(=O)N[C@@H]1C(=O)N2[C@@H]1SC(C)(C)[C@@H]2C(=O)O [CLOXACILLIN]	Not Active	Not Active	Not Active	Not Active	Not Active	Not Active	Not Active	Not Active	Not Active	Not Active	–	–	–	–	–	–
CC1CC(OC(=O)C(O)c2ccccc2)CC(C)(C)C1 (centres undefined) [CYCLANDELATE]	Not Active	Not Active	Not Active	Not Active	Not Active	Not Active	Not Active	Not Active	Not Active	Not Active	–	–	–	–	–	–
Cc1c2oc3c(C)ccc(C(=O)N[C@@H]4C(=O)N[C@H](C(C)C)C(=O)N5CCC[C@H]5C(=O)N(C)CC(=O)N(C)[C@@H](C(C)C)C(=O)O[C@@H]4C)c3nc-2c(C(=O)N[C@@H]2C(=O)N[C@H](C(C)C)C(=O)N3CCC[C@H]3C(=O)N(C)CC(=O)N(C)[C@@H](C(C)C)C(=O)O[C@@H]2C)c(N)c1=O [DACTINOMYCIN] (I: T[dV]P[Sar][NMeV] / II: T[dV]P[Sar][NMeV]; ester I:1-I:C, II:1-II:C; linker I:N-II:N via Actinocin(1to9))	Not Active	Not Active	Not Active	Not Active	Not Active	Not Active	Not Active	Not Active	Not Active	Not Active	–	–	–	–	–	–
Cc1c(O)c(=O)ccn1C [DEFERIPRONE]	Not Active	Not Active	Not Active	Not Active	Not Active	Not Active	Not Active	Not Active	Not Active	Not Active	–	–	–	–	–	–
CNCCCN1c2ccccc2CCc2ccccc21 [DESIPRAMINE]	Not Active	Not Active	Not Active	Not Active	Not Active	Not Active	Not Active	Not Active	Not Active	Not Active	–	–	–	–	–	–
